Where two headings read alike, the source gives them in different places.
Legend:
[1] = biological target: Cyp2e1 (Mus musculus, UniProt Q05421); conditions: mouse, in vivo, 400 mg/kg; cited from earlier work
[2] = tested on: Cyp2e1; conditions: Cyp2e1-/- mice; cited from earlier work
[3] = tested on: Cyp7b1; conditions: liver and kidney of Cyp7b-/- mice; cited from earlier work
[4] = tested on: Cyp7b1; experiment: DHEA metabolism in Cyp7b1 KO rats (transposon insertion)
[5] = biological target: T1, Cyp1a2 (Homo sapiens, UniProt P05177); conditions: human populations; cited from earlier work
T1 sequence (P05177 1-516): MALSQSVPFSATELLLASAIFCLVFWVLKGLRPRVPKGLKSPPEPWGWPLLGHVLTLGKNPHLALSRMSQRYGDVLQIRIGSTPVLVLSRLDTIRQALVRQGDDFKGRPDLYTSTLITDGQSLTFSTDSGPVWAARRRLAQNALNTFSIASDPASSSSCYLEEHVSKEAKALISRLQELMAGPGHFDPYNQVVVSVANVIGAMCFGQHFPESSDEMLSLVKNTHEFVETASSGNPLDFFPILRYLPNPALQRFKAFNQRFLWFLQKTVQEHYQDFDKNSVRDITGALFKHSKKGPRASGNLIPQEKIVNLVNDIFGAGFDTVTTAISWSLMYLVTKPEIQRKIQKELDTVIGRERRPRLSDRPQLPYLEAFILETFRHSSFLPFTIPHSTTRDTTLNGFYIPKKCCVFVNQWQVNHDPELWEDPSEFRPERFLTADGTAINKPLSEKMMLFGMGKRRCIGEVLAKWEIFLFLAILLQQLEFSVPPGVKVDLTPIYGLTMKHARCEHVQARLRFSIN

[6] = tested on: Cyp3a; conditions: cited from earlier work
[7] = tested on: Cyp3a; conditions: cited from earlier work; remark: listed apart in the source
[8] = biological target: T2, Cyp1a2 (Mus musculus, UniProt P00186); conditions: WT mice; cited from earlier work
T2 sequence (P00186 2-513): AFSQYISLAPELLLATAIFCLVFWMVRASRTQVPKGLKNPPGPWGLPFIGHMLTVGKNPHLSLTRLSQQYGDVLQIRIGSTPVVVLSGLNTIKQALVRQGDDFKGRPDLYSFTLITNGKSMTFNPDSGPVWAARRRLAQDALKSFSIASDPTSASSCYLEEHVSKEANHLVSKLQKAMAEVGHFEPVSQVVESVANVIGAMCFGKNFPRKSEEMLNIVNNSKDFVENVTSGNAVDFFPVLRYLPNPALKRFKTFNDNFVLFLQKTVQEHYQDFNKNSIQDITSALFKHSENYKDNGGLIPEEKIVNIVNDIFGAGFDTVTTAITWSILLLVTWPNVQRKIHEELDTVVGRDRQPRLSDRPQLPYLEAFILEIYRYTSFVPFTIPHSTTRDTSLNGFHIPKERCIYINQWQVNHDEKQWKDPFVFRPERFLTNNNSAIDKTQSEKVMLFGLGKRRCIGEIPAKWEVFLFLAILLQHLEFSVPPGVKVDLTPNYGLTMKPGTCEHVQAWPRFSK

[9] = tested on: Cyp1a2; conditions: Cyp1a2-/- mice; cited from earlier work
[10] = biological target: T3, androgen receptors (AR) (Homo sapiens, UniProt P10275); conditions: cited from earlier work
T3 construct: expressed in transfected cells
T3 sequence (P10275 1-920): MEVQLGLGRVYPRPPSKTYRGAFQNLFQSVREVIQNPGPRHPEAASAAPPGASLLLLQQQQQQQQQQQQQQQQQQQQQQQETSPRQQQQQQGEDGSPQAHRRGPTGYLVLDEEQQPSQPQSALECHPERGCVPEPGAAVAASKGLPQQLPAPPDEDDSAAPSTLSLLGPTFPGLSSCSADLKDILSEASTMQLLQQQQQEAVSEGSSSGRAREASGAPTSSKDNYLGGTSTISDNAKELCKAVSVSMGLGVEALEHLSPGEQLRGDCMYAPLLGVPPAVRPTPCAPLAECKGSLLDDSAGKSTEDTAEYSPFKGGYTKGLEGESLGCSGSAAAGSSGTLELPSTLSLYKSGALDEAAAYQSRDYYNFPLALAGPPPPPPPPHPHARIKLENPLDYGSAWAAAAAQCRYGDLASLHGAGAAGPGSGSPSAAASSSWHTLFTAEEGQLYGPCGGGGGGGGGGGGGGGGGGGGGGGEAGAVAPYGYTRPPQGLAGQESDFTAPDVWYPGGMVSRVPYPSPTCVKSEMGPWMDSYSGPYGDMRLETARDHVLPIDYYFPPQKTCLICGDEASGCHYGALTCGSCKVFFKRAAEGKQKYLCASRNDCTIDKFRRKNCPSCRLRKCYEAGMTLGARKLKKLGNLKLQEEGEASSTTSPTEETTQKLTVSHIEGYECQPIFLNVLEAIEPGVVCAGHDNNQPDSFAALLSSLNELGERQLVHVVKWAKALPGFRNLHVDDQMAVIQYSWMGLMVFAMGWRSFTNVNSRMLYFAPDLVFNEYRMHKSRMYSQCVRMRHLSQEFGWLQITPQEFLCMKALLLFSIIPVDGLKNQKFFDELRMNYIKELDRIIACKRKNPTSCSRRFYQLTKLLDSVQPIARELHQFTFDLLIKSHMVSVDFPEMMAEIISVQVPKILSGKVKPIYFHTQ

[11] = biological target: T4, ER-alpha (Homo sapiens, UniProt P03372); conditions: cited from earlier work
T4 construct: expressed in transfected cells
T4 sequence (P03372 whole entry): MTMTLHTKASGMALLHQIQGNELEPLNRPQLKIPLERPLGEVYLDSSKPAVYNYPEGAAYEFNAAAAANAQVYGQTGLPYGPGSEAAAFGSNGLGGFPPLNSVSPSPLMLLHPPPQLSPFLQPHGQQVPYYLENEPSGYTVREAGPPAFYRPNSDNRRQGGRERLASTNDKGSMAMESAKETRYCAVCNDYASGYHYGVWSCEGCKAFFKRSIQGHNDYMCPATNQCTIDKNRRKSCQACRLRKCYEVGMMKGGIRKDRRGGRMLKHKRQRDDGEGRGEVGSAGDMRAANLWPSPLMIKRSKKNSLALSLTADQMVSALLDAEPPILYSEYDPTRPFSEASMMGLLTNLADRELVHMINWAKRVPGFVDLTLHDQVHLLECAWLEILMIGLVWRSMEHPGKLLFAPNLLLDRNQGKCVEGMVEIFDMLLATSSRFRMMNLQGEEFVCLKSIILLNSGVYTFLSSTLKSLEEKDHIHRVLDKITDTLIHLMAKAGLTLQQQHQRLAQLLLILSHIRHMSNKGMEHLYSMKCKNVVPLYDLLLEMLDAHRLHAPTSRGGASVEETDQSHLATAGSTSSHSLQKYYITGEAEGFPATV

[12] = biological target: T5, ER-beta (Homo sapiens, UniProt Q92731); conditions: cited from earlier work
T5 construct: expressed in transfected cells
T5 sequence (Q92731 whole entry): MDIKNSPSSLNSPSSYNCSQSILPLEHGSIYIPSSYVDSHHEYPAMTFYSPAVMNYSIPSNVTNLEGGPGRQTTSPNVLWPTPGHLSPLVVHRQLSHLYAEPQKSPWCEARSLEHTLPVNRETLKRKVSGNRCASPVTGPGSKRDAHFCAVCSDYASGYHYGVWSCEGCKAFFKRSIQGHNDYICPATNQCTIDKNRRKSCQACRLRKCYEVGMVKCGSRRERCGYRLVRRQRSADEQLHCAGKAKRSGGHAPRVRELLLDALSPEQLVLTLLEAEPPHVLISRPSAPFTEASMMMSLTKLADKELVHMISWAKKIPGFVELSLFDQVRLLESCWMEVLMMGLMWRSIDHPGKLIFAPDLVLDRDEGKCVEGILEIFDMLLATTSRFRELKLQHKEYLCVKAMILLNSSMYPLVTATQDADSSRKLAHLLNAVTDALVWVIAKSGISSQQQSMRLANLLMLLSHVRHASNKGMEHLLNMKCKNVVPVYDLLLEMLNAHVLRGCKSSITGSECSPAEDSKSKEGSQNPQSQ

Cyp2e1 (Mus musculus, UniProt Q05421), sequence (Q05421 whole entry): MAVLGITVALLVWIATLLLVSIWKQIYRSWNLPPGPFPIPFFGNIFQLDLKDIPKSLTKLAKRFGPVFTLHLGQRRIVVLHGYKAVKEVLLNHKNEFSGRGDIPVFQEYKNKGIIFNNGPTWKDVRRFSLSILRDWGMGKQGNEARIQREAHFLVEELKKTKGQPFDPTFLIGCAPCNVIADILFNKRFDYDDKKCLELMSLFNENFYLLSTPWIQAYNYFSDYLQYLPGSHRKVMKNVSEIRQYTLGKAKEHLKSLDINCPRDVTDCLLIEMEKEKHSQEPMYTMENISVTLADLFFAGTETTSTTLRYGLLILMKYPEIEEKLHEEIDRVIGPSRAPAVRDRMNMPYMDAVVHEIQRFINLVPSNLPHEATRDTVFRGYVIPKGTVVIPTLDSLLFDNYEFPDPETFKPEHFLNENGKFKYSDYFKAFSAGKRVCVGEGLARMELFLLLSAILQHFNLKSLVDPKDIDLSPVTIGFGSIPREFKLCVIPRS

## CC(=O)Nc1ccc(O)cc1 [acetaminophen]
[1]
  mice that succumb to toxicity and die: over 50%
[2]
  dose survived: up to 400 mg/kg

## C[C@]12CC[C@H](O)CC1=CC[C@@H]1[C@@H]2CC[C@]2(C)C(=O)CC[C@@H]12 [DHEA, dehydroepiandrosterone]
[3]
  DHEA conversion to 7D: significantly altered
[4]
  metabolism of DHEA to 7α-hydroxy-DHEA: unable to metabolize

## Cn1c(=O)c2c(ncn2C)n(C)c1=O [Caffeine]
[5]
  half-life: 1.5 to 9.5 h

## CC(=O)O[C@@]12CO[C@@H]1C[C@H](O)[C@@]1(C)C(=O)[C@H](O)C3=C(C)[C@@H](OC(=O)[C@H](O)[C@@H](NC(=O)OC(C)(C)C)c4ccccc4)C[C@@](O)([C@@H](OC(=O)c4ccccc4)[C@H]21)C3(C)C [docetaxel]
[6]; Cyp3a-/- mice
  oral bioavailability: 21.2%
[6]; WT mice
  oral bioavailability: 8.1%
[6]; after i.v. administration
  plasma docetaxel, Cyp3a-/- versus WT mice: 6.8 fold
[6]; after oral administration
  plasma level of docetaxel, Cyp3a-/- versus WT mice: 17.7 fold
[6]; mice deficient for gene family Cyp3a
  docetaxel metabolism (KO phenotype): function are unable to metabolize docetaxel.
[7]; Cyp3a-/- microsomes
  M-2 metabolite formation: not recognized
[7]; WT microsomes
  M-2 metabolite formation: efficiently formed

## Clc1cc2c(cc1Cl)Oc1cc(Cl)c(Cl)cc1O2 [TCDD, 2,3,7,8-Tetrachlorodibenzo-p-dioxin]
[8]
  liver-to-adipose (L/F) ratio: 3.6
[9]
  liver-to-adipose (L/F) ratio: 0.2

## C[C@]12CC[C@H](O)CC1=C[C@@H](O)[C@@H]1[C@@H]2CC[C@]2(C)C(=O)CC[C@@H]12 [7-alpha-hydroxy-DHEA]
[10]
  receptor activation: activates
[11]
  receptor activation: activates
[12]
  receptor activation: activates
